Source: patent US11786479B2, “Nucleic acid nanocapsules for drug delivery and targeted gene knockdown” (University of Connecticut, priority 2017, dated 2023)

Experiments:
[1] = system: HeLa cells; assay: MTS assay of PMA-treated HeLa cells with camptothecin-loaded MMP9-NANs; type: cell-based; settings: HeLa cells treated with PMA for 21 h
Method: In order to test the correlation between enzyme expression level within a live cell and the ability of the pep-NANs to be degraded, an additional assay was run in which HeLa cells were treated with phorbol 12-myristate 13-acetate (PMA), a known inducer of MMP9 expression in HeLa cells. Cells were incubated in serum-free media and treated with MMP9-NANs carrying camptothecin, a known apoptotic cancer drug. The toxicity of the drug loaded MMP9-NANs was evaluated using an MTS assay post 21 h PMA treatment, allowing enough time for MMP9 expression.

[2] = system: GATA-3 mRNA truncate; assay: Cleavage assay of mRNA truncate, polyacrylamide gel; type: biochemical; settings: 37° C., 4 h
Method: Cleavage Assay. To test the activity of the GATA-3 DNAzyme, both free DNAzyme and 5 μM of ligated NANs were incubated with 0.5 μM GATA-3 mRNA truncate, both in the presence and absence of salts (10 mM MgCl2 and 100 mM NaCl). The different reactions were then run on an 8% denaturing polyacrylamide gel at 350 V for 30 minutes. The gel was scanned using both a 473 nm laser and a 532 nm laser.

[3] = system: GATA-3 mRNA truncate; assay: Kinetics cleavage assay (BHQ-mRNA fluorescence); type: biochemical; settings: 10 nM DNAzyme, mRNA truncate 10-200 nM, 37° C.
Description: Kinetics Cleavage Assay: To determine the kinetics of the cleavage of GATA-3 by both the free and NAN-bound DNAzyme, a fluorescence-based assay was developed. A mRNA truncate corresponding to the cleavable sequence in GATA-3 mRNA was purchased (BioSearch Technologies). The truncate, herein referred to as BHQ-mRNA, was functionalized with a quencher (BHQ1) at the 3′ end and a fluorescein derivative (FAM) at the 5′ end. […] All fluorescence measurements were taken using a Horiba Jobin Yvon fluorometer and, unless otherwise stated, all samples were excited at 470 nm and measurements taken from 485 nm to […]. Samples were heated to their stated temperature using a Cary single cell peltier accessory. A solution of MgCl2 (10 mM), NaCl (100 mM), DNAzyme (10 nM) and H2O was prepared in a total volume 400 μL. The DNAzyme solution was heated to 70° C. for ten minutes prior to mixing. The sample was cooled to and held at 37° C. in the fluorometer and an initial background reading was taken. BHQ mRNA (10 nM, BioSearch Technologies) was spiked into the sample and the fluorescence monitored over 20 minutes. Additional measurements were taken at 25, 50, 75, and 200 nM concentrations of mRNA. This same procedure was repeated for the DNAzyme-NAN (10 nM). […] All non-linear fits for assigning Vmax values were determined using Kaleidagraph 4.5 graphing software.

[4] = system: MCF-7 cells; assay: Confocal microscopy uptake of TYE-665 labeled DNAzyme in MCF-7 cells; type: cell-based; settings: 4 hours of incubation
Method: FIG. 15 illustrates cellular uptake and targeted gene knockdown by DNAzyme-NANs in MCF-7 cells. (A) Confocal microscopy of free DNAzymes labeled with TYE-665 dye transfected into MCF-7 cells and monitored for evidence of cellular uptake post 4 hours of incubation. (B) Confocal microscopy of DNz-NANs incubated with cells without transfection agents in which the DNAzyme on the NAN was also labeled with TYE-665 dye. […] All scale bars are 20 μm. (C) GATA-3 mRNA knockdown in MCF-7 cells. 250 nM DNz-NAN is capable of knocking down mRNA by 60% compared to untreated cells (N=3, p=0.0016). […] Error bars represent the standard error of the mean (N=3). (D) MCF-7 cells treated with 250 nM DNz-NANs, monitored for GATA-3 mRNA levels via qRT-PCR at times ranging from 4 to 48 hours of incubation.
Targeted cleavage is only possible if the DNz-NAN can disassemble and the DNz-surfactants can escape the endosomal compartments of the cell post endocytosis. To study the suitability of the DNz-NAN for cellular uptake and stability of its DNAzyme ligands in the cell, the DNz-NANs were first incubated in 10% fetal bovine serum to mimic exposure to cellular nucleases. […] 1 μM Dye-DNz-NANs were incubated with MCF-7 cells for 4 hr and monitored for evidence of uptake using confocal microscopy (FIGS. 15A and 15B). […]

[5] = system: mRNA truncate within the Au NP lipoplex; assay: mRNA cleavage across AuNP-templated lipid bilayer (synthetic lipoplex); type: biochemical; settings: equal concentrations of DNAzyme
Description: A synthetic lipoplex system was designed to help monitor mRNA cleavage across a lipid bilayer (FIG. 16A). This construct was built using a gold nanoparticle (Au NP) as it can support a simplified lipid bilayer system (FIG. 16B). At the Au NPs surface, both a thiolated DNA molecule and a thiolated PEG-DSPE molecule were assembled (1:2 ratio). The DNA at the surface serves as an anchoring site for the annealing of the 19mer mRNA truncate. For this assay, the same mRNA truncate that was utilized in the kinetics assay was used. Therefore, unless cleaved, the molecule should have limited fluorescence as it has both the BHQ quencher and FAM modifications. This construct was further encapsulated with DOPE, to form a bilayer around the AuNPs, a procedure previously disclosed (Shen et al. Nanoscale, 2016, 8, 14821-14835.) These particles were then subjected to either the free DNAzyme or DNAzyme-surfactants, and the extent of mRNA cleavage evaluated as a function of increases observed in overall fluorescence. To mimic more closely the DNz-surfactant that would results from the DNz-NANs post degradation by endosomal esterases, a modified surfactant which presented only two alkynes was synthesized, attached the DNA anchor to it, and ligated DNAzymes to the anchor to form a DNAzyme-surfactant conjugate. […] All conditions had equal concentrations of DNAzyme.

Molecule	no toxicity up to [1]	cleavage of truncated GATA-3 mRNA (gel) [2]	Km [3]	cellular uptake (TYE-665 signal) [4]	access to and cleavage of mRNA truncate across lipid bilayer (fluorescence) [5]
CCCCCCCCCCCCCC(=O)O[C@@H]1[C@@H](C)[C@@]2(O)[C@@H](C=C(CO)C[C@]3(O)C(=O)C(C)=C[C@@H]23)[C@@H]2C(C)(C)[C@]12OC(C)=O [PMA, phorbol 12-myristate 13-acetate]	up to 150 ng/mL	–	–	–	–
DNAzyme: GATA-3 targeting DNAzyme (hgd40), SEQ ID NO:2 (DNA GTGGATGGAGGCTAGCTACAACGAGTCTTGGAG; GATA-3 DNAzyme; misc_structure (1)..(1) monophosphorylated site)	–	complete cleavage	0.059 µM	TYE signal could be observed in the perinuclear region of the cells	limited change in signal
